Experimental data as given in patent publication EP3981864A1, “DETERGENT COMPOSITION” (priority 2020, dated 2022).

Key:
[1] = test system: Solanum lycopersicum αDOX (SEQ ID NO: 8), fatty acid alpha-dioxygenase, Q5WM33, N-terminal His-tag variant SEQ ID NO: 263 (comparative); assay: Alpha-dioxygenase activity assay (oxygen consumption, TON); format: biochemical; conditions: fatty acid 100 µM, enzyme 6 ppm, 50 mM HEPES pH 9.0, 37°C; initial rate of oxygen consumption / enzyme concentration
From the text: Solanum lycopersicum αDOX (SEQ ID NO: 8) is a fatty acid alpha-dioxygenase that converts fatty acids into the corresponding 2-hydroperoxy fatty acids and is included as a comparative example of the present invention. A codon optimized gene (SEQ ID NO: 262) encoding for an alpha-dioxygenase variant (SEQ ID NO: 263), including an N-terminal amino acid sequence containing a His-tag was designed and synthesized by Genscript. After gene synthesis, the protein was expressed and purified. In brief, the complete synthetic gene sequence was subcloned into a pET30a vector using the NdeI/HindIII cloning sites. For heterologous expression, Escherichia coli BL21 (DE3) cells were transformed with the recombinant plasmid and a single colony was inoculated into LB medium containing kanamycin (50 mg/L). A pre-starter culture was then inoculated into flasks containing Magic Media (Thermo Fisher, Catalog # K6803) supplemented with kanamycin (50 mg/L) and incubated at 16 °C for 72 h. At an OD600nm = 0.5 - 1.0, 5-aminolevulinic acid (final concentration 0.5 mM) was added. Cells were harvested by centrifugation at 5000 rpm and 4°C and the pellet was lysed using a bacterial cell lysis buffer (B-PER - Themo Fisher, Waltham, MA). After centrifugation, the supernatant was collected, and the protein was purified by one-step purification using HisPur™ Ni-NTA Spin Columns (Thermo Scientific, Catalog # 88226) and standard protocols known in the art. The protein was concentrated using a 10 kDa MW cutoff Amicon Ultra centrifugal filter unit (Millipore Sigma, Catalog# UFC901024), followed by desalting using a disposable PD-10 desalting column (GE Healthcare Life Sciences, Catalog# 17085101) and a buffer containing 50 mM Tris-HCl, 500 mM NaCl, and 10% Glycerol at pH 8.0. […]
Reactions with alpha-dioxygenases were performed as follows. […] The reaction was incubated for up to 10 minutes at 37°C with 200 rpm agitation and the conversion was monitored using an oxygen sensor. The TON (in s-1) were calculated as the ratio between the initial rate of oxygen consumption (in µM/s) and the concentration of enzyme (in µM). […]

[2] = target: T1, Arabidopsis thaliana αDOX (SEQ ID NO: 10), fatty acid alpha-dioxygenase, Q9C9U3, variant with N-terminal His-tag, MBP tag and TEV site SEQ ID NO: 267 (comparati (Arabidopsis thaliana, UniProt Q9C9U3)); assay: as above; format: biochemical; conditions: fatty acid 100 µM, enzyme 6 ppm, 50 mM HEPES pH 9.0, 37°C; initial rate of oxygen consumption / enzyme concentration
T1 construct: His-tag (N); MBP tag (N); TEV protease cleavage site (N); made in house; host or cells: Escherichia coli BL21 (DE3), modified pET28a
T1 sequence (Q9C9U3 21-631): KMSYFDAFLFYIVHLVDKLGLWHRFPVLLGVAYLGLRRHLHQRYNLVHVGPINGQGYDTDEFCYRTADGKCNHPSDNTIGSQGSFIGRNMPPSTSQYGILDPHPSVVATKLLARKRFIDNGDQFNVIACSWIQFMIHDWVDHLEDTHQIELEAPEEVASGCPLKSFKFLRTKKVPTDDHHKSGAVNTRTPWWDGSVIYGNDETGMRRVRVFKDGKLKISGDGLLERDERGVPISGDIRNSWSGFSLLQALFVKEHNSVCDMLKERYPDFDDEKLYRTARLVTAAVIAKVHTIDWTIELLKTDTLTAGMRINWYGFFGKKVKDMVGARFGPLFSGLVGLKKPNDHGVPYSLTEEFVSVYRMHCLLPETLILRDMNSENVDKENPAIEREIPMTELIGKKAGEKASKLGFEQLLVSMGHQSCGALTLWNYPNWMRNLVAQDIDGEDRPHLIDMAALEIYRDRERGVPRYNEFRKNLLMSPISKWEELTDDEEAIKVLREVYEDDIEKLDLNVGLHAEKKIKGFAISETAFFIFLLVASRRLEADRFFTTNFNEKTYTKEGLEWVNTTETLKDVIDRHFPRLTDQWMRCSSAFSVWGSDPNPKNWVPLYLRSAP
From the text: Arabidopsis thaliana αDOX (SEQ ID NO: 10) is a fatty acid alpha-dioxygenase that converts fatty acids into the corresponding 2-hydroperoxy fatty acids and is included as a comparative example of the present invention. A codon optimized gene (SEQ ID NO: 266) encoding for an alpha-dioxygenase variant was designed and synthesized by Genscript. After synthesis, the gene was cloned into a modified version of pET28a, such as the final plasmid encoded for a αDOX variant including an N-terminal amino acid sequence containing a His-tag, an MBP tag, and a TEV protease cleavage site (SEQ ID NO: 267). For heterologous expression, Escherichia coli BL21 (DE3) cells were transformed with the recombinant plasmid and a single colony was inoculated into LB medium containing kanamycin (50 mg/L). A pre-starter culture was then inoculated into flasks containing TB Media supplemented with kanamycin (50 mg/L) and incubated at 37 °C. At an OD600nm about 3.8, IPTG (final concentration 0.1 mM) and 5-aminolevulinic acid (final concentration 0.25 mM) were added to the culture and further incubated at 16 °C for 16 h. Cells were harvested by centrifugation and the pellet was lysed. After centrifugation, the supernatant was collected, and the protein was purified by one-step purification using Ni-NTA affinity chromatography and standard protocols known in the art. The protein was stored in 1×PBS buffer containing 10% Glycerol and at pH 7.4. The purified enzyme was stored at -80 °C until use.
Reactions with alpha-dioxygenases were performed as follows. An aliquot of fatty acid in ethanol (final concentration 100 µM) was resuspended in buffer (50 mM HEPES at pH 9.0) in a scintillation vial. The reaction was started by addition of enzyme (final concentration 6 ppm). The reaction was incubated for up to 10 minutes at 37°C with 200 rpm agitation and the conversion was monitored using an oxygen sensor. The TON (in s-1) were calculated as the ratio between the initial rate of oxygen consumption (in µM/s) and the concentration of enzyme (in µM). […]

## CCCCCCCC/C=C\CCCCCCCC(=O)O [Oleic Acid]
[1]
  Oleic Acid, TON: 0.00 s⁻¹
[2]
  Oleic Acid, TON: 0.13 s⁻¹

## CCCCCCCCCCCCCCCC(=O)O [Palmitic Acid]
[1]
  Palmitic Acid, TON: 0.00 s⁻¹
[2]
  Palmitic Acid, TON: 0.54 s⁻¹

## CCCCCCCCCCCCCCCCCC(=O)O [Stearic Acid]
[1]
  Stearic Acid, TON: 0.12 s⁻¹
[2]
  Stearic Acid, TON: 0.13 s⁻¹
